Measurements reported in patent US9738634B2, “Heterocyclic amide compound and herbicide” (SYNGENTA PARTICIPATIONS AG, priority 2013, dated 2017).

What was measured:
Type in all cases: in vivo
barnyard grass [1] = test: Test Example 1: weedkilling efficacy, preemergent weed treatment in the submerged state; A: barnyard grass
From the text: (§1) Weedkilling efficacy test on preemergent weed treatment in the submerged state
(§2) Alluvial soil was introduced into 1/10,000 Are Wagner pots, and 4 cm depth submerged conditions were created by addition of water and mixing. Seeds of barnyard grass, bulrush and oval-leafed pondweed were mixed and sown into the aforesaid cups, then 2.5 leaf stage rice seedlings were transplanted. On the sowing day, emulsions of compounds of the present invention prepared according to compounding example 2 were diluted with water to give the specified dosages and applied onto the water surface. The plants were grown after placing the cups in a greenhouse at 25 to 30° C. 3 weeks after the pesticide treatment the effect on each type of plant was investigated on the basis of the following assessment criteria.
(§3) A: barnyard grass, B: bulrush, C: oval-leafed pondweed, D: crabgrass, E: green foxtail, F: barnyard grass, G: wild oat, H: black-grass, I: Italian ryegrass, J: common wind-grass, K: Indian mallow, L: redroot pigweed, M: fig-leafed goosefoot, N: chickweed, O: catchweed, p: birds-eye speedwell, a: transplanted rice, b: directly sown rice, c: corn, d: soybean, e: wheat, f: beet, g: rapeseed
(§4) Further, pesticide dosage (g/ha) indicates the concentration regulated such that treatment was with only the stated number of grams (g), when calculated per hectare (ha).

bulrush [2] = test: Test Example 1: weedkilling efficacy, preemergent weed treatment in the submerged state; B: bulrush
From the text: as §1, §2, §3, §4

oval-leafed pondweed = test: Test Example 1: weedkilling efficacy, preemergent weed treatment in the submerged state; C: oval-leafed pondweed
From the text: as §1, §2, §3, §4

transplanted rice = test: Test Example 1: preemergent weed treatment in the submerged state, effect on crop; a: transplanted rice
From the text: as §1, §2, §3, §4

barnyard grass [3] = test: Test Example 2: weedkilling efficacy, growth period weed treatment in the submerged state; A: barnyard grass; conditions: treatment dosage 320 g/ha
Procedure: (§5) Weedkilling efficacy test on growth period weed treatment in the submerged state
as §2, with “and the plants were grown by placing in a greenhouse at 25 to 30° C. When the barnyard grass, bulrush and oval-leafed pondweed had reached the 1-2” for “then 2.5”, “stage,” for “stage rice seedlings were transplanted. On the sowing day,”, “surface.” for “surface. The plants were grown after placing the cups in a greenhouse at 25 to 30° C.”, “the” for “the following”, “criteria of test example 1.” for “criteria.”
as §3, §4

bulrush [4] = test: Test Example 2: weedkilling efficacy, growth period weed treatment in the submerged state; B: bulrush; conditions: treatment dosage 320 g/ha
Procedure: as §5
as §2, with “and the plants were grown by placing in a greenhouse at 25 to 30° C. When the barnyard grass, bulrush and oval-leafed pondweed had reached the 1-2” for “then 2.5”, “stage,” for “stage rice seedlings were transplanted. On the sowing day,”, “surface.” for “surface. The plants were grown after placing the cups in a greenhouse at 25 to 30° C.”, “the” for “the following”, “criteria of test example 1.” for “criteria.”
as §3, §4

With COC(=O)c1ccnc(NC(=O)C(C)(C)N2COCN(c3ccccc3)C2=O)c1 [A-2-47] the “A: barnyard grass, weed kill grade” value (barnyard grass [1]; treatment dosage 320 g/ha) was 2 (weed kill ratio 20% or more, less than 40%), the “B: bulrush, weed kill grade” value (bulrush [2]; treatment dosage 320 g/ha) was 4 (weed kill ratio 70% or more, less than 90%) and the “C: oval-leafed pondweed, weed kill grade” value (oval-leafed pondweed; treatment dosage 320 g/ha) was 0 (weed kill ratio 5% or less (practically no effect)). The “a: transplanted rice, effect on crop grade” value (from here on “a: transplanted rice, effect”) (transplanted rice; treatment dosage 320 g/ha) was 0 (weed kill ratio 5% or less (practically no effect)).

With COc1ccnc(NC(=O)C(C)(C)N2COCN(c3ccccc3)C2=O)c1 [A-2-51] the “A: barnyard grass, weed kill grade” value (barnyard grass [1]; treatment dosage 252 g/ha) was 4 (weed kill ratio 70% or more, less than 90%), the “B: bulrush, weed kill grade” value (bulrush [2]; treatment dosage 252 g/ha) was 5 (weed kill ratio 90% or more, (practically complete withering)) and the “C: oval-leafed pondweed, weed kill grade” value (oval-leafed pondweed; treatment dosage 252 g/ha) was 2 (weed kill ratio 20% or more, less than 40%). For the same compound, the “a: transplanted rice, effect” value (transplanted rice; treatment dosage 252 g/ha) was 0 (weed kill ratio 5% or less (practically no effect)).

In the case of COc1cc(C(F)(F)F)cc(NC(=O)C(C)(C)N2COCN(c3ccccc3)C2=O)n1 [A-2-59], the “A: barnyard grass, weed kill grade” value (barnyard grass [1]; treatment dosage 320 g/ha) is reported as 5 (weed kill ratio 90% or more, (practically complete withering)), the “B: bulrush, weed kill grade” value (bulrush [2]; treatment dosage 320 g/ha) is reported as 5 (weed kill ratio 90% or more, (practically complete withering)) and the “C: oval-leafed pondweed, weed kill grade” value (oval-leafed pondweed; treatment dosage 320 g/ha) is reported as 5 (weed kill ratio 90% or more, (practically complete withering)). The “a: transplanted rice, effect” value (transplanted rice; treatment dosage 320 g/ha) was 1 (weed kill ratio 5% or more, less than 20%).

In the case of Cc1cnc(Cl)c(NC(=O)C(C)(C)N2COCN(c3ccccc3)C2=O)c1 [A-3-09], the “A: barnyard grass, weed kill grade” value (barnyard grass [1]; treatment dosage 252 g/ha) is reported as 2 (weed kill ratio 20% or more, less than 40%), the “B: bulrush, weed kill grade” value (bulrush [2]; treatment dosage 252 g/ha) is reported as 4 (weed kill ratio 70% or more, less than 90%) and the “C: oval-leafed pondweed, weed kill grade” value (oval-leafed pondweed; treatment dosage 252 g/ha) is reported as 0 (weed kill ratio 5% or less (practically no effect)). The “a: transplanted rice, effect” value (transplanted rice; treatment dosage 252 g/ha) was 1 (weed kill ratio 5% or more, less than 20%).

COc1ccc(N2COCN(C(C)(C)C(=O)Nc3cc(C(F)(F)F)ccn3)C2=O)cc1Cl [A-6-05] was tested, and the “A: barnyard grass, weed kill grade” value (barnyard grass [1]; treatment dosage 320 g/ha) was 2 (weed kill ratio 20% or more, less than 40%), the “B: bulrush, weed kill grade” value (bulrush [2]; treatment dosage 320 g/ha) was 2 (weed kill ratio 20% or more, less than 40%) and the “C: oval-leafed pondweed, weed kill grade” value (oval-leafed pondweed; treatment dosage 320 g/ha) was 2 (weed kill ratio 20% or more, less than 40%). For the same compound, the “a: transplanted rice, effect” value (transplanted rice; treatment dosage 320 g/ha) was 0 (weed kill ratio 5% or less (practically no effect)).

Cc1ccc(N2COCN(C(C)(C)C(=O)Nc3cc(C(F)(F)F)ccn3)C2=O)cc1 [A-6-09] was tested, and the “A: barnyard grass, weed kill grade” value (barnyard grass [1]; treatment dosage 320 g/ha) was 4 (weed kill ratio 70% or more, less than 90%), the “B: bulrush, weed kill grade” value (bulrush [2]; treatment dosage 320 g/ha) was 5 (weed kill ratio 90% or more, (practically complete withering)) and the “C: oval-leafed pondweed, weed kill grade” value (oval-leafed pondweed; treatment dosage 320 g/ha) was 4 (weed kill ratio 70% or more, less than 90%). For the same compound, the “a: transplanted rice, effect” value (transplanted rice; treatment dosage 320 g/ha) was 0 (weed kill ratio 5% or less (practically no effect)), the “A (barnyard grass) weedkilling efficacy grade” value (barnyard grass [3]) was 3 (weed kill ratio 40% or more, less than 70%) and the “B (bulrush) weedkilling efficacy grade” value (bulrush [4]) was 3 (weed kill ratio 40% or more, less than 70%).

With CC1=C(c2ccnc(F)c2)C(=O)N(C(C)(C)C(=O)Nc2cccc(Cl)n2)CO1 [B-2-21] the “A (barnyard grass) weedkilling efficacy grade” value (barnyard grass [1]; treatment dosage 252 g/ha) was 0 (weed kill ratio 5% or less (practically no effect)), the “B (bulrush) weedkilling efficacy grade” value (bulrush [2]; treatment dosage 252 g/ha) was 5 (weed kill ratio 90% or more, (practically complete withering)) and the “C (oval-leafed pondweed) weedkilling efficacy grade” value (oval-leafed pondweed; treatment dosage 252 g/ha) was 3 (weed kill ratio 40% or more, less than 70%). For the same compound, the “a (transplanted rice) effect on crop grade” value (transplanted rice; treatment dosage 252 g/ha) was 0 (weed kill ratio 5% or less (practically no effect)).

For CC1=C(c2cncnc2)C(=O)N(C(C)(C)C(=O)Nc2cccc(Cl)n2)CO1 [B-2-22], the “A (barnyard grass) weedkilling efficacy grade” value (barnyard grass [1]; treatment dosage 1000 g/ha) was 3 (weed kill ratio 40% or more, less than 70%), the “B (bulrush) weedkilling efficacy grade” value (bulrush [2]; treatment dosage 1000 g/ha) was 3 (weed kill ratio 40% or more, less than 70%) and the “C (oval-leafed pondweed) weedkilling efficacy grade” value (oval-leafed pondweed; treatment dosage 1000 g/ha) was 1 (weed kill ratio 5% or more, less than 20%). For the same compound, the “a (transplanted rice) effect on crop grade” value (transplanted rice; treatment dosage 1000 g/ha) was 0 (weed kill ratio 5% or less (practically no effect)).
